We go through 12 molecules from patent US8466111B2, “Cyclopenta{G}quinazoline derivatives for the treatment of rheumatoid arthritis or acute myeloid leukaemia” (BTG International Limited, priority 2008, dated 2013).

Where two headings read alike, the source gives them in different places.

Assay [1] deals with T1, FR-β (Homo sapiens, UniProt P14207).
T1 construct: expressed in transfected cells; host or cells: Chinese Hamster Ovary cells (CHO-β / CHO-FR-β)
Nature of the assay: Intact cell competitive binding of [3H]-folic acid to FR-β (CHO-β cells). The conditions noted are these: for FR-β binding affinity relative to folic acid: [3H]-folic acid displacement, 10 min at 4° C. The protocol: (§1) An intact cell binding assay for competitive binding of [^3H]-folic acid and novel anti-folate drugs to FR-β and FR-α was performed essentially as described previously. See Mol. Pharmacol. 1995; 48: […] and Cancer Res. 1995; 55(17): 3795-3802 (both Westerhof et al.). Briefly, CHO-β cells (FR-β transfected Chinese Hamster Ovary cells) and KB cells (FR-α expressing cells) were detached by incubation in PBS+1 mM EDTA. Detached cells were suspended in ice-cold HEPES-buffered saline (140 mM NaCl, 20 mM HEPES, 6 mM KCl, 2 mM MgCl2, 6 mM D-glucose, pH 7.4 with NaOH) to a cell concentration of 3×10^6 and 1×10^6 cells/ml, respectively. One ml of cell suspension was added to a series of Eppendorf tubes containing […] [^3H]-folic acid (specific radioactivity: 2,000 dpm/μmol) in the absence or presence of increasing concentrations of natural folate or folate antagonists. Following 10 minutes at 4° C., cells were centrifuged in an Eppendorf centrifuge (30 s, 10,000 rpm), the supernatant was aspirated and cell pellets were resuspended in 200 μl water and analysed for radioactivity (Optima Gold scintillation fluid, United Technologies, Packard, Brussels, Belgium). Non-specific binding of [^3H] […] For comparison, data for affinities of the RFC for natural folates and folate antagonists were presented from previous studies. See. Mol Pharmacol 1995; 48: 459-471 Westerhof et al.) and Cancer Res. 2005; 65(24): 11721-11728 (Gibbs et al.).

Assay [2] deals with CHO/FR-β cells. Briefly: Cell proliferation inhibition, CHO-FR-β cells. The format is cell-based, Chinese Hamster. As to conditions: for Effect of addition of folic acid on growth inhibitory activity: 1 μM folic acid to block FR. The protocol:
(§2) Cell proliferation inhibition assay CHO-WT and CHO-FRβ cells were seeded in individual wells of a 24-well tissue culture plate at a density of 1×10^4/cm^2. […] After 72 hours incubation, cells were harvested by trypsinization and counted for cell viability as described before. See Mol. Pharmacol. 1999; 55(4): 761-769 (Jansen et al.).

Assay [3] concerns CHO/WT cells. Briefly: Cell proliferation inhibition, CHO-WT cells. It is filed as cell-based, Chinese Hamster. As to conditions: 72 hours. As to the method: as §2
The test system of assay [4] is human monocytic-macrophage THP1 cells. Nature of the assay: Cell proliferation inhibition, THP1 cells. It is filed as cell-based. As to conditions: read-out: Growth inhibitory effects, IC50. As to the method:
In other experiments human monocytic-macrophage THP1 cells were tested for antiproliferative effects of folate antagonists. To this end, 1 ml of cell suspension containing 1.25×10^5 cells were plated in individual wells of a 24-well tissue culture plate and incubated with 8 concentrations (with 2.5-fold increments) of folate antagonist drugs. After 72 hours drug exposure cell counts were performed with a haemocytometer and viability was checked by trypan blue exclusion.

Assay [5] concerns the target T2, RFC (reduced folate carrier) (Homo sapiens, UniProt P41440).
T2 sequence (P41440 1-591): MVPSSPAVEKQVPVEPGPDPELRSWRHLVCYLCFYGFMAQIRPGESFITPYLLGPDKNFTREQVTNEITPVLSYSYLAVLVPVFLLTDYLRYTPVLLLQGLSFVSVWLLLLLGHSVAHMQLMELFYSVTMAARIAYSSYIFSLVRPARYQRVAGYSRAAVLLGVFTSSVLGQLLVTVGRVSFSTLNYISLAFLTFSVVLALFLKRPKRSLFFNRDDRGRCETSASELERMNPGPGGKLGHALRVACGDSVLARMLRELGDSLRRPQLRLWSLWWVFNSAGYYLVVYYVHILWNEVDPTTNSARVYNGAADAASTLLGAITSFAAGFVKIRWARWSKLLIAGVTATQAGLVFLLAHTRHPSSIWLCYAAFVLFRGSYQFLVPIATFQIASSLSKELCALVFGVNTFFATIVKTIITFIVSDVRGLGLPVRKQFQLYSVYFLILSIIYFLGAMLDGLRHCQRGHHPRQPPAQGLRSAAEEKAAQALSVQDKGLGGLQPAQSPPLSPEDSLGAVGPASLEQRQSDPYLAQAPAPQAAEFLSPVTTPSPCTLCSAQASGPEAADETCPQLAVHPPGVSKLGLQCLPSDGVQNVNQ
The conditions noted are these: cited from earlier work.

In assay [6] the target is T3, FR-α (Homo sapiens, UniProt P15328).
T3 construct: KB cells (FR-α expressing cells); host or cells: KB cells
Nature of the assay: Intact cell competitive binding of [3H]-folic acid to FR-α (KB cells). The conditions noted are these: FRα (KB) versus FR-β (CHO-β). The protocol:
as §1, with “Mol Pharmacol 1995; 48: 459-471 Westerhof et al.) and Cancer Res. 2005; 65(24): 11721-11728 (Gibbs et al.).” left out

Assay [7] relates to macrophages (3A5) in synovial sublining layer. Briefly: Synovial tissue immunohistochemistry of RA patients treated with MTX. It is filed as in vivo, human. As to conditions: after 4 months of MTX, 219 before treatment, p=0.14. As to the method:
In this study we analysed synovial tissue biopsies derived from the knee joints of 15 RA-patients with active disease before treatment and after 4 months of treatment with MTX (starting dose of MTX: 7.5 mg/week; increasing stepwise to 15 mg/week over 12 weeks). Active disease was defined as ≧6 swollen or tender joints and levels of moderate or worse on the physician's and patient's assessments of disease activity (Disease Activity Score-28; DAS-28). All patients had at least 1 clinically involved knee joint. Low dose prednisone (<10 mg/day) and concomitant stable doses of nonsteroidal anti-inflammatory drug (NSAID) treatment were allowed. None of the patients ever used MTX before enrolling the study. In patients taking other DMARDs, the treatment was terminated following a washout phase of 28 days. […]
Immunohistochemical staining of cryostat sections (4 μm) of synovial tissue biopsies from RA patients and controls was performed using a 3-step immunoperoxidase method as described previously. […] Stained sections were analysed for FR-β, 3A5 and CD3 expression by digital image analysis, as described previously. […] Positive cells were evaluated by analysing 18 consecutive hpfs, scoring numbers of positive cells in the intimal lining layer and the synovial sublining per mm^2.

T1 sequence (P14207 17-230): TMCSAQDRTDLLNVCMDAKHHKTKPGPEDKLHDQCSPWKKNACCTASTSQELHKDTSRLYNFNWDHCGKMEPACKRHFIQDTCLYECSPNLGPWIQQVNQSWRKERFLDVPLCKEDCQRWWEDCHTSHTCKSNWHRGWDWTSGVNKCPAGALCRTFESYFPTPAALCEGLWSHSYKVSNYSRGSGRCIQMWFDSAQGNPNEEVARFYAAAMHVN
T3 sequence (P15328 25-234): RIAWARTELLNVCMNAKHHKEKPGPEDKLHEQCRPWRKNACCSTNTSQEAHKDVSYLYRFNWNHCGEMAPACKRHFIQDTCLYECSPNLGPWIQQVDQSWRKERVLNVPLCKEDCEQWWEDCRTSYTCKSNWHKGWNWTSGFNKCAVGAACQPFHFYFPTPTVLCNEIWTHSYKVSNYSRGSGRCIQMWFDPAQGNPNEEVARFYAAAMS

Regarding `C#CCN(c1ccc(C(=O)N[C@@H](CCC(=O)N[C@H](CCC(=O)O)C(=O)O)C(=O)O)cc1)C1CCc2cc3nc(CO)[nH]c(=O)c3cc21` (mixture of isomers) [BGC 945], in assay [1], the “FR-β binding affinity” value was “relatively high binding affinity” and the “FR-β binding affinity relative to folic acid” value is reported as 89 % of folic acid. In assay [2], the “Effect of addition of folic acid on growth inhibitory activity” value is listed as “completely abrogated”. Further, the “Concentration inducing growth inhibition of CHO/FR-β cells” value in assay [2] (72 hours) was in the range of 10 to 50 nM. Moreover, the “Differential in activity between control CHO cells and FR-β transfected cells” value in assay [2] (CHO/WT versus CHO/FR-β) is “largest differential in activity”. Moreover, the “Extracellular concentration inducing growth inhibition of CHO/WT cells” value in assay [3] is listed as above 1000 nM. For the same molecule, the IC50 in assay [4] (Homo sapiens, THP-1, 72 h) is 3630 ± 350 nM. Moreover, the “Affinity for RFC” value in assay [5] is given as “poor affinity for RFC”.

For the molecule `C#CCN(c1ccc(C(=O)N[C@@H](CCC(=O)N[C@H](CCC(=O)O)C(=O)O)C(=O)O)cc1)[C@H]1CCc2cc3nc(CO)[nH]c(=O)c3cc21` [(6S)-BGC 945], the “FR-β binding affinity relative to folic acid” value in assay [1] is reported as 46 % of folic acid.

Turning to `Nc1nc2c(c(=O)[nH]1)SC(CCc1ccc(C(=O)N[C@@H](CCC(=O)O)C(=O)O)s1)CN2` (stereo partly shown) [AG2034], in assay [1], the “FR-β binding affinity” value is reported as “moderate to high binding affinities” and the “FR-β binding affinity relative to folic acid” value was 54 % of folic acid. Besides, the “Abrogation of growth inhibitory effects by FR-β blocking (folic acid) and RFC blocking (LV)” value in assay [2] (folic acid 1 μM or leucovorin 20 nM, CHO/WT and CHO/FR-β) is reported as “only partial”. Besides, in assay [3], the “Growth inhibition of CHO/WT cells” value was “displayed a growth inhibitory potential”. Also, in assay [4] (Homo sapiens, THP-1, 72 h), the half-inhibitory concentration (IC50) worked out at 3.2 ± 0.2 nM. For the same molecule, the “FRα binding affinity, fold higher than FR-β” value in assay [6] stood at 2.5 fold.

Regarding `C#CCN(Cc1cc2c(=O)[nH]c(C)nc2cc1C)c1ccc(C(=O)N[C@@H](CCc2nn[nH]n2)C(=O)O)c(F)c1` [BGC 9331], in assay [4] (Homo sapiens, THP-1, 72 h), the IC50 is 8.7 ± 0.8 nM.

With `C#CN(Cc1cc2c(=O)[nH]c(N)nc2cc1C)c1ccc(C(=O)N[C@@H](CCC(=O)CN[C@H](CCCC(=O)O)C(=O)O)C(=O)O)c(F)c1` [CB300635], in assay [1], the “FR-β binding affinity” value is listed as “relatively high binding affinity” and the “FR-β binding affinity relative to folic acid” value was 161 % of folic acid. In addition, the “Effect of addition of folic acid on growth inhibitory activity” value in assay [2] was “abrogated activity”. Besides, the “Growth inhibition of CHO/FR-β cells” value in assay [2] (72 hours) was “not markedly potent”. The IC50 in assay [4] (Homo sapiens, THP-1, 72 h) was 4850 ± 285 nM. Moreover, in assay [5], the “Affinity for RFC” value is “poor affinity for RFC”.

For `Nc1nc2c(c(=O)[nH]1)CC(CCc1ccc(C(=O)N[C@@H](CCC(=O)O)C(=O)O)cc1)CN2` (stereo partly shown) [DDATHF, 5,10-dideazatetrahydrofolate], in assay [1], the “FR-β binding affinity” value is recorded as “moderate to high binding affinities” and the “FR-β binding affinity relative to folic acid” value is listed as 27 % of folic acid. Besides, in assay [4] (Homo sapiens, THP-1, 72 h), the IC50 is 9.8 ± 0.8 nM. Also, in assay [6], the “FRα binding affinity, fold higher than FR-β” value came out at 2.5 fold.

In the case of `Cc1nc2ccc3ccc(CNc4ccc5c(c4)CN([C@@H](CCC(=O)O)C(=O)O)C5=O)cc3c2c(=O)[nH]1` [GW1843], in assay [1], the “FR-β binding affinity” value was “relatively high binding affinity”. Further, the IC50 in assay [4] (Homo sapiens, THP-1, 72 h) came to 1.6 ± 0.1 nM.

In the case of `CN(Cc1cnc2nc(N)nc(N)c2n1)c1ccc(C(=O)N[C@@H](CCC(=O)O)C(=O)O)cc1` [MTX, methotrexate], the “Median numbers of macrophages after MTX treatment” value in assay [7] was 119 positive cell counts in the synovial sublining layer/mm^2. Besides, in assay [1], the “FR-β binding affinity, fold lower than for folic acid” value is “approximately 50 fold”. The IC50 in assay [4] (Homo sapiens, THP-1, 72 h) came to 7.1 ± 0.5 nM.

Consider `Nc1nc(N)c2nc(CNc3ccc(C(=O)N[C@@H](CCCNC(=O)c4ccccc4C(=O)O)C(=O)O)cc3)cnc2n1` [PT523], for which the “FR-β binding affinity relative to folic acid” value in assay [1] is listed as 0.3 % of folic acid. For the same molecule, in assay [4] (Homo sapiens, THP-1, 72 h), the IC50 turned out to be 2.2 ± 0.3 nM.

Take `Cc1c(CNc2ccc(C(=O)N[C@@H](CCCNC(=O)c3ccccc3C(=O)O)C(=O)O)cc2)cnc2nc(N)nc(N)c12` [PT644]: in assay [1], the “FR-β binding affinity” value is “affinity comparable to MTX”. Also, in assay [4] (Homo sapiens, THP-1, 72 h), the half-inhibitory concentration (IC50) turned out to be 1 ± 0.4 nM.

In the case of `Cc1nc2ccc(CN(C)c3ccc(C(=O)N[C@@H](CCC(=O)O)C(=O)O)s3)cc2c(=O)[nH]1` [Raltitrexed], the IC50 in assay [4] (Homo sapiens, THP-1, 72 h) came to 2.4 ± 0.5 nM.

Turning to Pemetrexed, the IC50 in assay [4] (RPMI-1640 with 2.2 μM folic acid, 72 hours drug exposure, mean ± S.D. of 3 experiments) amounted to 10.7 ± 2.2 nM.

The term IC50 denotes the concentration at which inhibition is half-maximal.
